Data taken from PubChem BioAssay AID1949 (Southern Research Institute, 2009).
≈ marks a conversion by molar mass, not a printed value. Records with an inconclusive call do not appear. Calls of active or inactive are those of the source. No rule for the calls is given here.

These molecules were tested on M. tuberculosis H37Rv growth inhibition (assay: Confirmatory growth inhibition assay against Mycobacterium tuberculosis H37Rv, potency (AID 1949);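 also: bacteria grown 7 days with compound before Alamar blue readout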).

Row | SMILES | IC50
1 | CC(Oc1ccc(C(=O)NC2CCCCC2)cc1)C(=O)OCc1ccccc1Cl (stereo not drawn) | 0.95 µg/mL (≈ 2.28 µM)
2 | Cc1c(Cl)ccc(OCCCN2CCCC(C)C2)c1C (stereo not drawn) | 3.16 µg/mL (≈ 10.7 µM)
3 | O=c1c2ccccc2nc(/C=C/c2ccc([N+](=O)[O-])o2)n1-c1cccc(O)c1 | 0.65 µg/mL (≈ 1.73 µM)
4 | C/C(=N/Nc1nc(C)c(C)s1)c1ccc(Br)cc1 | 0.59 µg/mL (≈ 1.82 µM)
5 | O=C1C(=O)N(CCc2ccccc2)c2ccc(Cl)cc21 | 4.73 µg/mL (≈ 16.6 µM)
6 | Clc1ccc(OCCCn2ccnc2)cc1Cl | 3.98 µg/mL (≈ 14.7 µM)
7 | O=C(CC(O)(C(F)(F)F)C(F)(F)F)Nc1ccc(Cl)cc1Cl | 5.7 µg/mL (≈ 15.4 µM)
8 | CCc1ccc(Oc2nc([N+](=O)[O-])nn2C)cc1 | 1.13 µg/mL (≈ 4.55 µM)
9 | COCCCN1C(=O)c2cccc3c([N+](=O)[O-])ccc(c23)C1=O | 15.3 µg/mL (≈ 48.7 µM)
10 | Cc1ccc2oc(=O)n(CCCOc3ccc(Cl)cc3)c2c1 | 2.98 µg/mL (≈ 9.38 µM)
11 | O=C(Nc1ccccc1Cl)c1cc([N+](=O)[O-])ccc1O | 7.53 µg/mL (≈ 25.7 µM)
12 | O=C(NCCc1ccc(F)cc1)NC12CC3CC(CC(C3)C1)C2 | 0.21 µg/mL (≈ 0.664 µM)
13 | CCC(C)NC(=O)c1ccc(NC(=O)C2(c3ccccc3)CCCC2)cc1 (stereo not drawn) | 1.08 µg/mL (≈ 2.96 µM)
14 | CCOC(=O)COc1ccc(C(=O)Nc2ccc(F)cc2)cc1 | < 0.1 µg/mL
15 | CCC(C)c1ccc(OCCn2ccnc2)cc1 (stereo not drawn) | 2.73 µg/mL (≈ 11.2 µM)
16 | CC1CCC(C(=O)c2c(O)c3ccccc3oc2=O)CC1 (stereo not drawn) | > 50 µg/mL (inactive)
17 | CCCCNCCCCOc1ccc2ccccc2c1Br | 1.63 µg/mL (≈ 4.65 µM)
18 | CC(C(=O)OCc1ccccc1Cl)n1cnc2scc(-c3ccc(Cl)cc3)c2c1=O (stereo not drawn) | > 50 µg/mL (inactive)
19 | O=C1C(Cl)=C(c2ccc(Cl)cc2)C(=O)N1c1ccc(Cl)cc1 | > 50 µg/mL (inactive)
20 | COc1cccc(N2CCN(Cc3nc(N)nc(Nc4ccc(C)c(C)c4)n3)CC2)c1 | 2.82 µg/mL (≈ 6.72 µM)
21 | O=C(Nc1cccc([N+](=O)[O-])c1)N1CCN(Cc2ccc(Cl)cc2Cl)CC1 | 5.06 µg/mL (≈ 12.4 µM)
22 | Oc1ccccc1-c1n[nH]c(/C=C/c2ccc(Cl)cc2)n1 | 2.73 µg/mL (≈ 9.17 µM)
23 | CCC(=O)Nc1ccc2oc(-c3c(F)c(F)c(F)c(F)c3F)nc2c1 | 10.5 µg/mL (≈ 29.4 µM)
24 | O=C(O)c1ccc(NC(=S)NC(=O)c2ccc(-c3ccccc3)cc2)cc1 | 1.58 µg/mL (≈ 4.2 µM)

Row | SMILES | IC50
25 | O=C(c1ccc(Cl)cc1)c1ccc(CSc2nnc(-c3ccccc3)o2)o1 | < 0.1 µg/mL
26 | O=S(=O)(Nc1cc(Sc2cccc3cccnc23)c(O)c2ccccc12)c1ccccc1 | 0.18 µg/mL (≈ 0.393 µM)
27 | CCOC(=O)c1cc(=O)c(-c2ccccc2)n[nH]1 | 3.8 µg/mL (≈ 15.6 µM)
28 | Cc1cc(OCCCn2ccnc2)ccc1Cl | 1.94 µg/mL (≈ 7.74 µM)
29 | CC(=O)c1ccc2[nH]c3ccc(C(C)=O)cc3c2c1 | 0.2 µg/mL (≈ 0.796 µM)
30 | C/C(=N/N=C1\NC(=O)C(Cc2ccc(F)cc2)S1)c1ccc(C)cc1 (stereo not drawn) | > 50 µg/mL (inactive)
31 | CCOC(=O)c1c(NC(C)=O)sc2c(OCC(O)CN(CC)CC)c(Br)ccc12 (stereo not drawn) | 4.61 µg/mL (≈ 9.46 µM)
32 | CC1=Nc2c(ccc3cccnc23)C1(C)C | 0.19 µg/mL (≈ 0.904 µM)
33 | CCC(C)(C)C1CCc2sc3ncnc(N4CCN(C)CC4)c3c2C1 (stereo not drawn) | 6.39 µg/mL (≈ 17.8 µM)
34 | CC1CC(C)CN(C(=O)Nc2ccc(Cl)c(Cl)c2)C1 (stereo not drawn) | 1.21 µg/mL (≈ 4.02 µM)
35 | NC(=O)CSc1nnc(SCc2ccc(F)cc2)s1 | 9.02 µg/mL (≈ 28.6 µM)
36 | Cc1nc(SCC(=O)N2CCC(C)CC2)c2c3c(sc2n1)CCC3 | > 50 µg/mL (inactive)
37 | CC(C)(C)C(=O)Nc1nc2c(Cl)c(Cl)ccc2s1 | 7.02 µg/mL (≈ 23.2 µM)
38 | Cc1nc2ccc(C(=O)OCc3cccc(F)c3)cc2nc1C | 1.68 µg/mL (≈ 5.41 µM)
39 | COc1cccc(CN2CCN(C(=O)Nc3ccc(Cl)c(Cl)c3)CC2)c1 | 5.13 µg/mL (≈ 13 µM)
40 | COc1ccc(C(=O)CCN2CCN(c3ccccc3F)CC2)cc1 | 5.64 µg/mL (≈ 16.5 µM)
41 | COc1ccc(OCC(=O)Nc2cccc(Cl)c2)cc1 | 2.78 µg/mL (≈ 9.53 µM)
42 | O=C(CCN1C(=O)c2ccccc2C1=O)Oc1cccc2cccnc12 | 2.78 µg/mL (≈ 8.03 µM)
43 | C#Cc1cccc(NC(=O)COc2ccc(Cl)cc2)c1 | 8.18 µg/mL (≈ 28.6 µM)
44 | CCOC(=O)COc1ccc(C(=O)Nc2cccc(Cl)c2C)cc1 | < 0.1 µg/mL
45 | COC(=O)c1sc2nc(-c3ccccc3)nc(N3CCN(C)CC3)c2c1C | > 50 µg/mL (inactive)
46 | O=C(OCc1c(Cl)cccc1Cl)c1cc2ccccc2oc1=O | > 50 µg/mL (inactive)
47 | CNc1nc(N2CCc3ccccc32)ncc1F | 0.91 µg/mL (≈ 3.73 µM)
48 | Clc1ccc(OCCCNCc2ccccc2)c2ccccc12 | 1.36 µg/mL (≈ 4.17 µM)
